Data reported in patent US10251394B2, “Molecules having pesticidal utility, and intermediates, compositions, and processes, related thereto” (Dow AgroSciences LLC, priority 2016, dated 2019).

Key:
Type in all cases: in vivo
[1] = system: Beet Armyworm (Spodoptera exigua); assay: Bioassay on Beet Armyworm (BAW), 128-well diet tray assay; conditions: Beet Armyworm, Table ABC, read-out: BAW rating
Method in brief: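 Second-instar larvae (one to five per well) placed on artificial diet surface-treated with 50 μg/cm^2 test molecule in 90:10 acetone-water, dried, eight wells per molecule. Held at 25° C, 14:10 light-dark, five to seven days; percent mortality recorded per well and averaged across the eight wells.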

[2] = system: Yellow Fever Mosquito (Aedes aegypti); assay: Bioassay on Yellow Fever Mosquito (YFM) larvae, 96-well plate; conditions: Table ABC
Method in brief: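 About 1-day-old larvae in water with liver powder were added to wells holding compound from a 4000 ppm DMSO master diluted in 90:10 water:acetone. Plates covered and kept at room temperature for 3 days, then each well scored for mortality on a rating scale.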

[3] = system: Cabbage Looper (Trichoplusia ni); assay: Bioassay on Cabbage Looper (CL), 128-well diet tray assay; conditions: Cabbage Looper, Table ABC, read-out: CL rating
Method in brief: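 Second-instar larvae, one to five per well, placed on artificial diet surface-treated with 50 μg/cm^2 compound in acetone-water, eight wells per compound. Held 5-7 days at 25° C, 14:10 light-dark; percent mortality per well averaged across wells.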

SMILES | pest or weed control at 50 µg/cm2 [1] [%] | YFM rating [2] | pest or weed control at 50 µg/cm2 [3] [%]
COc1ccc(C(/C=C(\F)c2ccc(C(=O)N[C@H](C)C(=O)NCC(F)(F)F)c(C(F)(F)F)c2)C(F)(F)F)cc1Cl (stereo partly drawn) [F161, 4-((Z)-3-(3-Chloro-4-methoxyphenyl)-1,4,4,4-tetrafluorobut-1-en-1-yl)-N—((R)-1-oxo-1-((2,2,2-trifluoroethyl)amino)propan-2-yl)-2-(trifluoromethyl)benzamide] | 50 to 100 | A (80-100) | 50 to 100
CC(=O)CNC(=O)CNC(=O)c1ccc(/C(F)=C/C(c2cc(Cl)c(Cl)c(Cl)c2)C(F)(F)F)cc1C(F)(F)F (stereo not drawn) [F163, (Z)—N-(2-Oxo-2-((2-oxopropyl)amino)ethyl)-4-(1,4,4,4-tetrafluoro-3-(3,4,5-trichlorophenyl)but-1-en-1-yl)-2-(trifluoromethyl)benzamide] | 50 to 100 | A (80-100) | 50 to 100
CCc1ccc(C(/C=C(\F)c2ccc(C(=O)N[C@H](C)C(=O)NCC(F)(F)F)c(C(F)(F)F)c2)C(F)(F)F)cc1Cl (stereo partly drawn) [F164, 4-((Z)-3-(3-Chloro-4-ethylphenyl)-1,4,4,4-tetrafluorobut-1-en-1-yl)-N—((R)-1-oxo-1-((2,2,2-trifluoroethyl)amino)propan-2-yl)-2-(trifluoromethyl)benzamide] | 50 to 100 | B (More than 0-Less than 80) | 50 to 100
CCc1ccc(C(/C=C(\F)c2ccc(C(=O)NCC(=O)NCC(F)(F)F)c(C(F)(F)F)c2)C(F)(F)F)cc1Cl (stereo not drawn) [F165, (Z)-4-(3-(3-Chloro-4-ethylphenyl)-1,4,4,4-tetrafluorobut-1-en-1-yl)-N-(2-oxo-2-((2,2,2-trifluoroethyl)amino)ethyl)-2-(trifluoromethyl)benzamide] | 50 to 100 | B (More than 0-Less than 80) | 50 to 100
C[C@@H](NC(=O)c1ccc(/C(F)=C/C(c2cc(Cl)c(Cl)c(Cl)c2)C(F)(F)F)cc1C(F)(F)F)C(=O)N(C)C (stereo partly drawn) [F172, N—((R)-1-(Dimethylamino)-1-oxopropan-2-yl)-4-((Z)-1,4,4,4-tetrafluoro-3-(3,4,5-trichlorophenyl)but-1-en-1-yl)-2-(trifluoromethyl)benzamide] | 50 to 100 | B (More than 0-Less than 80) | 50 to 100
C[C@@H](NC(=O)c1ccc(/C(F)=C/C(c2ccc(C(F)(F)F)c(Cl)c2)C(F)(F)F)cc1C(F)(F)F)C(=O)NCC(F)(F)F (stereo partly drawn) [F205, 4-((Z)-3-(3-Chloro-4-(trifluoromethyl)phenyl)-1,4,4,4-tetrafluorobut-1-en-1-yl)-N—((R)-1-oxo-1-((2,2,2-trifluoroethyl)amino)propan-2-yl)-2-(trifluoromethyl)benzamide] | 50 to 100 | B (More than 0-Less than 80) | 50 to 100
C[C@@H](NC(=O)c1ccc(/C(F)=C/C(c2ccc(C(F)(F)F)c(Br)c2)C(F)(F)F)cc1C(F)(F)F)C(=O)NCC(F)(F)F (stereo partly drawn) [F208, 4-((Z)-3-(3-Bromo-4-(trifluoromethyl)phenyl)-1,4,4,4-tetrafluorobut-1-en-1-yl)-N—((R)-1-oxo-1-((2,2,2-trifluoroethyl)amino)propan-2-yl)-2-(trifluoromethyl)benzamide] | 50 to 100 | A (80-100) | 50 to 100
O=C(CNC(=O)c1ccc(/C(F)=C/C(c2ccc(C(F)(F)F)c(Br)c2)C(F)(F)F)cc1C(F)(F)F)NCC(F)(F)F (stereo not drawn) [F209, (Z)-4-(3-(3-Bromo-4-(trifluoromethyl)phenyl)-1,4,4,4-tetrafluorobut-1-en-1-yl)-N-(2-oxo-2-((2,2,2-trifluoroethyl)amino)ethyl)-2-(trifluoromethyl)benzamide] | 50 to 100 | A (80-100) | 50 to 100
C[C@@H](NC(=O)c1ccc(/C(F)=C/C(c2ccc(C(F)(F)F)c(F)c2)C(F)(F)F)cc1C(F)(F)F)C(=O)NCC(F)(F)F (stereo partly drawn) [F210] | 50 to 100 | B (More than 0-Less than 80) | 50 to 100
C[C@@H](NC(=O)c1ccc(/C(F)=C/C(c2cc(Cl)c(Cl)c(Cl)c2)C(F)(F)F)c2ccccc12)C(=O)NCC(F)(F)F (stereo partly drawn) [PF1, N—((R)-1-Oxo-1-((2,2,2-trifluoroethyl)amino)propan-2-yl)-4-((Z)-1,4,4,4-tetrafluoro-3-(3,4,5-trichlorophenyl)but-1-en-1-yl)-1-naphthamide] | 50 to 100 | A (80-100) | 50 to 100
C[C@@H](NC(=O)c1ccc(/C(F)=C/C(c2ccc(Br)c(Br)c2)C(F)(F)F)cc1C(F)(F)F)C(=O)N(C)CC(F)(F)F (stereo partly drawn) [PF2, 4-((Z)-3-(3,4-Dibromophenyl)-1,4,4,4-tetrafluoro-but-1-en-1-yl)-N—((R)-1-(methyl(2,2,2-trifluoroethyl)amino)-1-oxopropan-2-yl)-2-(trifluoromethyl)benzamide] | 50 to 100 | A (80-100) | 50 to 100
CN(CC(F)(F)F)C(=O)CNC(=O)c1ccc(/C(F)=C/C(c2ccc(Br)c(Br)c2)C(F)(F)F)cc1C(F)(F)F (stereo not drawn) [PF4, (Z)-4-(3-(3,4-Dibromophenyl)-1,4,4,4-tetrafluorobut-1-en-1-yl)-N-(2-(methyl(2,2,2-trifluoroethyl)amino]-2-oxoethyl)-2-(trifluoromethyl)benzamide] | 50 to 100 | A (80-100) | 50 to 100
C[C@@H](NC(=O)c1ccc(/C(F)=C/C(c2ccc(F)c(Cl)c2)C(F)(F)F)cc1C(F)(F)F)C(=O)N(C)CC(F)(F)F (stereo partly drawn) [PF8, 4-((Z)-3-(3-Chloro-4-fluorophenyl)-1,4,4,4-tetrafluorobut-1-en-1-yl)-N—((R)-1-(methyl(2,2,2-trifluoroethyl)amino)-1-oxopropan-2-yl)-2-(trifluoromethyl)benzamide] | 50 to 100 | B (More than 0-Less than 80) | 50 to 100
CN(CC(F)(F)F)C(=O)C1(NC(=O)c2ccc(/C(F)=C/C(c3ccc(F)c(Cl)c3)C(F)(F)F)cc2C(F)(F)F)CC1 (stereo not drawn) [PF10] | 50 to 100 | A (80-100) | 50 to 100
Cc1cc(C(/C=C(\F)c2ccc(C(=O)NCC(=O)N(C)CC(F)(F)F)c(C(F)(F)F)c2)C(F)(F)F)cc(Cl)c1Cl (stereo not drawn) [PF12, (Z)-4-(3-(3,4-Dichloro-5-methylphenyl)-1,4,4,4-tetrafluoro-but-1-en-1-yl)-N-(2-(methyl(2,2,2-trifluoroethyl)amino)-2-oxoethyl)-2-(trifluoromethyl)benzamide] | 50 to 100 | B (More than 0-Less than 80) | 50 to 100
Cc1cc(C(/C=C(\F)c2ccc(C(=O)N[C@H](C)C(=O)NCC(F)(F)F)c(C(F)(F)F)c2)C(F)(F)F)cc(Cl)c1Cl (stereo partly drawn) [PF13] | 50 to 100 | B (More than 0-Less than 80) | 50 to 100
Cc1cc(C(/C=C(\F)c2ccc(C(=O)N[C@H](C)C(=O)N(C)CC(F)(F)F)c(C(F)(F)F)c2)C(F)(F)F)cc(Cl)c1Cl (stereo partly drawn) [PF14, 4-((Z)-3-(3,4-Dichloro-5-methylphenyl)-1,4,4,4-tetrafluorobut-1-en-1-yl)-N—((R)-1-(methyl(2,2,2-trifluoroethyl)amino)-1-oxopropan-2-yl)-2-(trifluoromethyl)benzamide] | 50 to 100 | A (80-100) | 50 to 100
Cc1cc(C(/C=C(\F)c2ccc(C(=O)NC3(C(=O)NCC(F)(F)F)CC3)c(C(F)(F)F)c2)C(F)(F)F)cc(Cl)c1Cl (stereo not drawn) [PF15] | 50 to 100 | B (More than 0-Less than 80) | 50 to 100
CN(CC(F)(F)F)C(=O)CNC(=O)c1ccc(/C(F)=C/C(c2ccc(Cl)c(F)c2)C(F)(F)F)cc1C(F)(F)F (stereo not drawn) [PF18, (Z)-4-(3-(4-Chloro-3-fluorophenyl)-1,4,4,4-tetrafluorobut-1-en-1-yl)-N-(2-(methyl(2,2,2-trifluoroethyl)amino)-2-oxoethyl)-2-(trifluoromethyl)benzamide] | 50 to 100 | B (More than 0-Less than 80) | 50 to 100
C[C@@H](NC(=O)c1ccc(/C(F)=C/C(c2ccc(Cl)c(F)c2)C(F)(F)F)cc1C(F)(F)F)C(=O)NCC(F)(F)F (stereo partly drawn) [PF19, 4-((Z)-3-(4-Chloro-3-fluorophenyl)-1,4,4,4-tetrafluorobut-1-en-1-yl)-N—((R)-1-oxo-1-((2,2,2-trifluoroethyl)amino)propan-2-yl)-2-(trifluoromethyl)benzamide] | 50 to 100 | B (More than 0-Less than 80) | 50 to 100
C[C@@H](NC(=O)c1ccc(/C(F)=C/C(c2ccc(Cl)c(F)c2)C(F)(F)F)cc1C(F)(F)F)C(=O)N(C)CC(F)(F)F (stereo partly drawn) [PF20, 4-((Z)-3-(4-Chloro-3-fluorophenyl)-1,4,4,4-tetrafluorobut-1-en-1-yl)-N—((R)-1-(methyl(2,2,2-trifluoroethyl)amino)-1-oxopropan-2-yl)-2-(trifluoromethyl)benzamide] | 50 to 100 | B (More than 0-Less than 80) | 50 to 100
